Test system: HGADFN167 Lmna^G608G/G608G fibroblasts
Assay: Cell cycle analysis by flow cytometry
Format: cell-based, human
Settings: HGADFN167, 5 µM, 20 days
Protocol: Supporting Figure S5. Cell cycle analysis histogram. Flow cytometry analysis of DNA content showing cell cycle distribution with peaks corresponding to G0/G1 (labeled as M1) and G2/M phases, and an intermediate region representing S phase (S/G2/M are labeled as M2). Human progeroid LmnaG608G/G608G fibroblasts (HGADFN167 cells, from The Progeria Research Foundation) were incubated with 5 μM of compound 2 for 20 days and analyzed for DNA content by flow cytometry in a FACSCalibur Flow cytometer (Becton Dickinson). Images shown correspond to one representative analysis and bar graph represents mean±sem of 2 independent experiments performed in duplicate.
*p<0.05 vs HGADFN167 cells, one-way ANOVA. […]
Cells were harvested by trypsin, centrifuged and washed with PBS. Cells pellets were added with 70% (vol/vol) ice-cold ethanol. […] The mixture was then allowed to incubate for 30min at 37 °C in the dark and samples were finally analysed by FACScalibur (Becton Dickinson) flow cytometer […]
Cells were incubated for 1 h in 1% OsO4 at room temperature and then thoroughly washed with milliQ water. […] The samples were analysed and examined in the transmission electron microscope JEM 1010 at 80 […]
Total RNA of HGPS fibroblasts (HGADFN167) and UCM-18142-treated HGPS fibroblasts were extracted for RNA sequencing. The RNA concentration and integrity were assessed using the Tape Station 4150 system (Agilent). […]

Question: With CC1(C)Oc2cc3oc(=O)ccc3cc2C[C@@H]1OC(=O)CCCCCNc1cccc2c1C(=O)N(C1CCC(=O)NC1=O)C2=O (stereo partly shown) [compound 2] as the compound, how does the “percentage of cells undergoing replication (phases S/G2/M)” value read?
Answer: Its value is “increase”.
